Earlier results on 3 compounds are cited in patent US6902746B2, “Oral pharmaceutical compositions containing non-steroidal anti-inflammatory drugs and method for preparing the same” (Yung Shin Pharmaceutical Industrial Co., Ltd., priority 2002, dated 2005).

The test system of data set [1] is M.K. and δ opioid receptors.
For data set [2] the following is noted: animal studies; fraction of the effect of ketorolac tromethamine.
For data set [3] the following is noted: animal studies; fraction of the effect of ketorolac tromethamine. This is another data set of the same source.
For data set [4], the system named is platelet aggregation. As to conditions: in vitro; fraction of the activity of ketorolac tromethamine.
For data set [5] the following is noted: in vivo.

With `O=C(c1ccccc1)c1ccc2n1CCC2C(=O)O` (stereo not shown) [ketorolac], in data set [1], the “binding to opioid receptors” value is given as “does not bind”.

For the compound `O=C(c1ccc(O)cc1)c1ccc2n1CCC2C(=O)O` (stereo not shown) [p-hydroxyketorolac], the “analgesic effect relative to ketorolac tromethamine” value in data set [2] is 1/100. For the same compound, the “anti-inflammatory effect relative to ketorolac tromethamine” value in data set [3] is recorded as “less than ⅕”. In addition, the “anti-platelet aggregation activity relative to ketorolac tromethamine” value in data set [4] is 1/25.

Regarding “(±)-5-benzoyl-2,3-dihydro-1H-pyrrolizine-1-carboxylic acid 2-amino-2-(hydroxymethyl)-1,3-propanediol [Ketorolac tromethamine]”, in data set [5] (human), the plasma half-lives result was “markedly prolonged” and the total clearance result is reported as “decreased”. Besides, in data set [5], the “administered drug eliminated in the urine” value is listed as “about 75%”; the “administered drug, in its original form, found in the feces” value is listed as “About 6%”; the “bound to plasma proteins” value is recorded as “about 99%”; the mean elimination half-live was 5.3 h. In addition, in data set [5], the “mean volume of distribution at steady state” value is 0.11 L/kg and the “mean volume of distribution during the elimination phase” value is 0.17 to 0.25 L/kg. Also, the “absorption in the presence of antacids” value in data set [5] (po) is on record as “not affected”.
